Experiments:
iNKT cells = test: In vitro CFSE-dilution proliferation of iNKT cells in splenocyte culture; type: cell-based, WT C57BL/6 mice; conditions: for percent of iNKT cells proliferated (CFSE dilution): three days of culture
Experimental: (§1) Even activation of both iNKT and B cells by the weak agonist, soluble βGlcCer was enhanced by encapsulation of this glycolipid in nanoparticles (βGC-NanoP). Nanoparticles lacking glycolipids were not stimulatory for either iNKT or B cells in this assay (data not shown). Nanoparticles were assessed by Mass Spectrometry and Scanning Electron Microscopy for lipid content and particle size. In the study, spleen cells were isolated, then labeled with carboxyfluorescein diacetate succinimidyl ester (CFSE) and cultured for 3 days with soluble αGalCer, soluble βGlcCer, αGC-NanoPs, or βGC-NanoPs at concentrations of glycolipid noted. […] FIG. 2B is a graph showing a summary of the data in FIG. 2A. […] FIGS. 2C and 2D show the percentage of B220+ cells that dilute CFSE after 3 days of in vitro culture with soluble αGalCer and αGC-NanoP (FIG. 2C), or soluble βGlcCer and βGC-NanoP (FIG. 2D). Results shown are representative of 2 experiments, duplicate wells. *=p≤0.05 as compared to soluble glycolipid.
Total spleen cells from WT C57BL/6 mice were removed, a single cell suspension was created, and red blood cells were lysed. Splenocytes were labeled with carboxyfluorescein succinimidyl ester (CFSE) using standard procedures and then cultured at 2×10^6 cells/well in a 96 well flat bottom tissue culture plate. At the initiation of this culture, cells were coincubated with 10 pg/ml or 10 ng/ml of αGalCer, βGlcCer, αGC-NanoP, βGC-NanoP, or left in media only. After three days of culture, cells were removed from the wells, labeled with fluorescently tagged lineage specific markers (anti-B220 for B cells and anti-TcRβ plus CD1d-tetramer for iNKT cells) and assessed for cell type specific CFSE dilution by FACS analysis. […] In comparison, 39% of iNKT cells proliferated in response to αGC-NanoP at the 10 ng/ml dose and 35% responded vigorously to the 10 pg/ml dose.

splenic B cells = test: In vitro CFSE-dilution proliferation of B220+ B cells in splenocyte culture; type: cell-based, WT C57BL/6 mice; conditions: over the doses tested (10 pg/ml, 10 ng/ml), three days
Experimental: as §1
Total spleen cells from WT C57BL/6 mice were removed, a single cell suspension was created, and red blood cells were lysed. […] After three days of culture, cells were removed from the wells, labeled with fluorescently tagged lineage specific markers (anti-B220 for B cells and anti-TcRβ plus CD1d-tetramer for iNKT cells) and assessed for cell type specific CFSE dilution by FACS analysis. […]

Compound	stimulation of iNKT cells (iNKT cells; either dose tested (10 pg/ml, 10 ng/ml), three days)	B cell proliferation (CFSE dilution) (splenic B cells)	percent of iNKT cells proliferated (CFSE dilution) (iNKT cells; 10 pg/ml glycolipid)	percent of iNKT cells proliferated (CFSE dilution) (iNKT cells; 10 ng/ml glycolipid) [%]
βGlucosylceramide [βGlcCer]	neither βGlcCer alone nor βGC-NanoP were stimulatory	not to the doses tested		
CCCCCCCCCCCCCCCCCCCCCCCCCC(=O)N[C@@H](CO[C@H]1O[C@H](CO)[C@H](O)[C@H](O)[C@H]1O)[C@H](O)[C@H](O)CCCCCCCCCCCCCC [αGalCer, αGalactosylceramide]		only to the higher doses	not responsive	44

Source: patent publication US10881720B2, “Nanoparticles for immune stimulation” (THE BOARD OF REGENTS OF THE UNIVERSITY OF TEXAS SYSTEM, priority 2014, dated 2021)
